Measured values: PubChem BioAssay (NCI)
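Each compound was tested at five concentrations against cells in 96-well plates for 48 hours. GI50: concentration for 50% inhibition of growth. TGI: concentration producing complete growth inhibition.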

Columns and labels:
Experiment in all cases: NCI-60 cell line screen, 48 h
[1] = system: PC-3 prostate
[2] = system: HOP-92 NSCLC
[3] = system: SK-MEL-28 melanoma
[4] = system: IGROV1 ovarian
[5] = system: CCRF-CEM leukemia
[6] = system: NCI-H460 lung
[7] = system: EKVX NSCLC
[8] = system: TK-10 renal
[9] = system: A549 NSCLC
[10] = system: HL-60(TB) leukemia

Nc1ccccc1NC(=O)c1ccc(CCCC(=O)Nc2ccc(C3CC3N)cc2)cc1 (stereo not given) was tested, and the GI50 [1] was 2.32 µM, the TGI [1] was 95.3 µM and the GI50 [2] was 0.359 µM. The TGI [2] was 4.21 µM, the GI50 [3] was 1.31 µM and the TGI [3] was 11.3 µM. For the same compound, the GI50 [4] was 4.24 µM, the TGI [4] was > 100 µM and the GI50 [5] was 2.63 µM. The TGI [5] was > 100 µM, the GI50 [6] was 2.63 µM and the TGI [6] was > 100 µM. For the same compound, the GI50 [7] was 4.47 µM, the TGI [7] was > 100 µM and the GI50 [8] was 0.36 µM. For the same compound, the TGI [8] was 26.8 µM, the GI50 [9] was 4.38 µM and the TGI [9] was > 100 µM. It also gave a GI50 [10] of 0.725 µM and a TGI [10] of 65.2 µM.

For O=C(O)c1cc2ccccc2oc1=O, the TGI [1] was > 100 µM, the TGI [2] was > 100 µM and the TGI [3] was > 100 µM. For the same compound, the TGI [4] was > 100 µM, the TGI [5] was > 100 µM and the TGI [6] was > 100 µM. The TGI [7] was > 100 µM, the TGI [8] was > 100 µM and the TGI [9] was > 100 µM. The TGI [10] was > 100 µM.

For S=C(Nc1ccc(Cl)cc1)Nc1ccc(-c2nc3ccccc3o2)cc1, the GI50 [1] was 15.4 µM, the TGI [1] was 51.4 µM and the GI50 [2] was 17.2 µM. It also gave a TGI [2] of 50.4 µM, a GI50 [3] of 20.6 µM and a TGI [3] of 43.2 µM. The GI50 [4] was 10.9 µM, the TGI [4] was 37.4 µM and the GI50 [5] was 0.062 µM. It also gave a TGI [5] of 19.3 µM, a GI50 [6] of 17.4 µM and a TGI [6] of 58.3 µM. For the same compound, the GI50 [7] was 19.4 µM, the TGI [7] was 64 µM and the GI50 [8] was 21.2 µM. For the same compound, the TGI [8] was 74.1 µM, the GI50 [9] was 24.3 µM and the TGI [9] was 92.6 µM. For the same compound, the GI50 [10] was 32.2 µM and the TGI [10] was > 100 µM.

CCN1C2=NCCN2S(=O)(=O)c2ccccc21 was tested, and the TGI [1] was > 100 µM, the TGI [2] was > 100 µM and the TGI [3] was > 100 µM. The TGI [4] was > 100 µM, the TGI [5] was > 100 µM and the TGI [6] was > 100 µM. The TGI [7] was > 100 µM, the TGI [8] was > 100 µM and the TGI [9] was > 100 µM. The TGI [10] was > 100 µM.

In the case of O=C(/C=C/C=C/c1c(C2CC2)nc2ccccc2c1-c1ccc(F)cc1)c1cccs1, the GI50 [1] is reported as 3.99 µM, the TGI [1] is reported as > 100 µM and the GI50 [2] is reported as 1.83 µM. For the same compound, the TGI [2] was 8.6 µM, the GI50 [3] was 3.57 µM and the TGI [3] was > 100 µM. The GI50 [4] was 1.59 µM, the TGI [4] was > 100 µM and the GI50 [5] was 1.37 µM. For the same compound, the TGI [5] was > 100 µM, the GI50 [6] was 1.14 µM and the TGI [6] was 3.31 µM. For the same compound, the GI50 [7] was 3.09 µM, the TGI [7] was > 100 µM and the GI50 [8] was 4.58 µM. The TGI [8] was 32.9 µM, the GI50 [9] was 3.72 µM and the TGI [9] was > 100 µM. For the same compound, the GI50 [10] was 1.58 µM and the TGI [10] was 5.48 µM.

For CC(=O)N1c2ccccc2NC2=C(C(=O)N(Cc3ccccc3)C2(C)C)C1c1ccco1 (stereo not given), the GI50 [1] was 0.687 µM, the TGI [1] was > 25 µM and the GI50 [2] was 1.02 µM. For the same compound, the TGI [2] was > 25 µM, the GI50 [3] was > 25 µM and the TGI [3] was > 25 µM. For the same compound, the GI50 [4] was 0.893 µM, the TGI [4] was > 25 µM and the GI50 [5] was 0.258 µM. The TGI [5] was > 25 µM, the GI50 [6] was 0.145 µM and the TGI [6] was > 21.2 µM. For the same compound, the GI50 [7] was 1.73 µM, the TGI [7] was > 25 µM and the GI50 [8] was 6.14 µM. For the same compound, the TGI [8] was > 25 µM, the GI50 [9] was 1.03 µM and the TGI [9] was > 25 µM. For the same compound, the GI50 [10] was 0.103 µM and the TGI [10] was 0.651 µM.

O=C(O)CCC/C=C\C[C@H]1C=CC(=O)/C1=C/C[C@@H](O)CCc1cccc(C(F)(F)F)c1 was tested, and the GI50 [1] was 3.12 µM, the TGI [1] was 10.3 µM and the GI50 [2] was 3.32 µM. The TGI [2] was 8.2 µM, the GI50 [3] was 1.52 µM and the TGI [3] was 4.4 µM. For the same compound, the GI50 [4] was 3.41 µM, the TGI [4] was 13.6 µM and the GI50 [5] was 0.465 µM. The TGI [5] was 10.8 µM, the GI50 [6] was 2.23 µM and the TGI [6] was 4.96 µM. It also gave a GI50 [7] of 3.73 µM, a TGI [7] of 14.3 µM and a GI50 [8] of 4.21 µM. The TGI [8] was 9.82 µM, the GI50 [9] was 3.2 µM and the TGI [9] was 9.76 µM. It also gave a GI50 [10] of 2.37 µM and a TGI [10] of 6.9 µM.

With Fc1ccc(-c2ncn(C3CCNCC3)c2-c2ccnc(Oc3ccc(F)c(F)c3)n2)cc1 the GI50 [1] was 9.05 µM, the TGI [1] was > 19.9 µM and the GI50 [2] was 3.28 µM. It also gave a TGI [2] of 15.6 µM, a GI50 [3] of 4.57 µM and a TGI [3] of 8.79 µM. The GI50 [4] was 8.61 µM, the TGI [4] was > 22.6 µM and the GI50 [5] was > 14.9 µM. For the same compound, the TGI [5] was 24.2 µM, the GI50 [6] was 5.42 µM and the TGI [6] was 13.1 µM. The GI50 [7] was > 14.6 µM, the TGI [7] was > 25 µM and the GI50 [8] was 5.09 µM. For the same compound, the TGI [8] was 11.1 µM, the GI50 [9] was 9.39 µM and the TGI [9] was > 19.4 µM. For the same compound, the GI50 [10] was 10.6 µM and the TGI [10] was 24.6 µM.

O=C(Nc1ccccc1O)c1ccc(CNc2ccnc(C(F)(F)F)c2)cc1 showed a GI50 [1] of 2.72 µM, a TGI [1] of 48.4 µM and a GI50 [2] of 0.699 µM. It also gave a TGI [2] of 15.4 µM, a GI50 [3] of 3.52 µM and a TGI [3] of 23.4 µM. The GI50 [4] was 7.64 µM, the TGI [4] was 32.9 µM and the GI50 [5] was 0.354 µM. The TGI [5] was 12.8 µM, the GI50 [6] was 3.78 µM and the TGI [6] was 83.4 µM. The GI50 [7] was 4.19 µM, the TGI [7] was > 100 µM and the GI50 [8] was 11.3 µM. For the same compound, the TGI [8] was 36 µM, the GI50 [9] was 12 µM and the TGI [9] was > 100 µM. It also gave a GI50 [10] of 1.85 µM and a TGI [10] of 8.03 µM.

Clc1ccc(C2=Nn3c(nnc3-c3cc(Cl)cc(Cl)c3Cl)SC2)cc1 was tested, and the GI50 [1] was 73.4 µM, the TGI [1] was > 100 µM and the GI50 [2] was 19.6 µM. The TGI [2] was 65 µM, the GI50 [3] was > 100 µM and the TGI [3] was > 100 µM. The GI50 [4] was 6.8 µM, the TGI [4] was 24.7 µM and the GI50 [5] was 10.7 µM. For the same compound, the TGI [5] was 26 µM, the GI50 [6] was 41.3 µM and the TGI [6] was > 100 µM. For the same compound, the GI50 [7] was 45.1 µM, the TGI [7] was > 100 µM and the GI50 [8] was 15.9 µM. The TGI [8] was 35.9 µM, the GI50 [9] was 56.5 µM and the TGI [9] was > 100 µM. It also gave a GI50 [10] of 7.26 µM and a TGI [10] of 30.7 µM.

COc1cc2c3c(n(CCCNCCCNCCCNCCCN)c(=O)c2cc1OC)-c1cc2c(cc1C3=O)OCO2 showed a GI50 [1] of 3.31 µM, a TGI [1] of 14.8 µM and a GI50 [2] of 2.74 µM. The TGI [2] was 9.64 µM, the GI50 [3] was 2.29 µM and the TGI [3] was 25.2 µM. The GI50 [4] was 3.72 µM, the TGI [4] was > 100 µM and the GI50 [5] was 0.301 µM. It also gave a TGI [5] of 2.16 µM, a GI50 [6] of 1.32 µM and a TGI [6] of 4.25 µM. For the same compound, the GI50 [7] was 1.18 µM, the TGI [7] was 3.5 µM and the GI50 [8] was 2.8 µM. The TGI [8] was 5.8 µM, the GI50 [9] was 2.2 µM and the TGI [9] was 11.7 µM. The GI50 [10] was 1.36 µM and the TGI [10] was 3.3 µM.
